Experimental data from PubChem BioAssay (NCI).
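Compound exposure: 48 hours, 5 concentrations, 96-well plates. TGI marks complete inhibition of growth.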

Experiments:
Experiment in all cases: NCI tumour cell line growth inhibition, 48 h
[1] = system: OVCAR-8 ovarian
[2] = system: CAKI-1 renal
[3] = system: A498 renal
[4] = system: K-562 leukemia
[5] = system: HOP-92 NSCLC
[6] = system: RPMI-8226 leukemia
[7] = system: SW-620 colon
[8] = system: CCRF-CEM leukemia
[9] = system: OVCAR-5 ovarian
[10] = system: LOX IMVI melanoma
[11] = system: UO-31 renal
[12] = system: NCI-H460 lung
[13] = system: TK-10 renal
[14] = system: T-47D breast
[15] = system: UACC-62 melanoma
[16] = system: HCT-116 colon
[17] = system: NCI-H522 lung
[18] = system: SK-MEL-28 melanoma
[19] = system: KM12 colon
[20] = system: HL-60(TB) leukemia
[21] = system: UACC-257 melanoma
[22] = system: EKVX NSCLC
[23] = system: U251 CNS
[24] = system: ACHN renal
[25] = system: HCC-2998 colon
[26] = system: M14 melanoma
[27] = system: SR leukemia
[28] = system: A549 NSCLC
[29] = system: MDA-N
[30] = system: 786-0 renal
[31] = system: DU-145 prostate
[32] = system: SNB-19 CNS
[33] = system: MOLT-4 leukemia
[34] = system: HS 578T breast
[35] = system: OVCAR-3 ovarian
[36] = system: RXF 393 renal
[37] = system: MDA-MB-231 breast
[38] = system: NCI/ADR-RES ovarian
[39] = system: SF-268 CNS
[40] = system: MCF7 breast
[41] = system: BT-549 breast
[42] = system: IGROV1 ovarian
[43] = system: MDA-MB-435
[44] = system: NCI-H226 lung
[45] = system: SF-539 CNS
[46] = system: SN12C renal
[47] = system: SK-MEL-5 melanoma
[48] = system: SK-MEL-2 melanoma
[49] = system: NCI-H23 lung
[50] = system: HT29 colon
[51] = system: PC-3 prostate
[52] = system: COLO 205 colon
[53] = system: SF-295 CNS
[54] = system: OVCAR-4 ovarian
[55] = system: HOP-62 NSCLC
[56] = system: HCT-15 colon
[57] = system: SK-OV-3 ovarian
[58] = system: SNB-75 CNS
[59] = system: MALME-3M melanoma

O=S(=O)(O)c1ccc(N=Nc2ccccc2)cc1
TGI [1]: > 100 µM | TGI [2]: > 100 µM | TGI [3]: > 100 µM | TGI [4]: > 100 µM | TGI [5]: > 100 µM | TGI [6]: > 100 µM | TGI [7]: > 100 µM | TGI [8]: > 100 µM | TGI [9]: > 100 µM | TGI [10]: > 100 µM | TGI [11]: > 100 µM | TGI [12]: > 100 µM | TGI [13]: > 100 µM | TGI [14]: > 100 µM | TGI [15]: > 100 µM | TGI [16]: > 100 µM | TGI [17]: > 100 µM | TGI [18]: > 100 µM | TGI [19]: > 100 µM | TGI [20]: > 100 µM | TGI [21]: > 100 µM | TGI [22]: > 100 µM | TGI [23]: > 100 µM | TGI [24]: > 100 µM | TGI [25]: > 100 µM | TGI [26]: > 100 µM | TGI [27]: > 100 µM | TGI [28]: > 100 µM | TGI [29]: > 100 µM | TGI [30]: > 100 µM | TGI [31]: > 100 µM | TGI [32]: > 100 µM | TGI [33]: > 100 µM | TGI [34]: > 100 µM | TGI [35]: > 100 µM | TGI [36]: > 100 µM | TGI [37]: > 100 µM | TGI [38]: > 100 µM | TGI [39]: > 100 µM | TGI [40]: > 100 µM | TGI [41]: > 100 µM | TGI [42]: > 100 µM | TGI [43]: > 100 µM | TGI [44]: > 100 µM | TGI [45]: > 100 µM | TGI [46]: > 100 µM | TGI [47]: > 100 µM | TGI [48]: > 100 µM | TGI [49]: > 100 µM | TGI [50]: > 100 µM | TGI [51]: > 100 µM | TGI [52]: > 100 µM | TGI [53]: > 100 µM | TGI [54]: > 100 µM | TGI [55]: > 100 µM | TGI [56]: > 100 µM | TGI [57]: > 100 µM

COC1OC2COC1(OCc1ccccc1)C1OC(C)(C)OC21 (stereo not drawn)
TGI [1]: > 100 µM | TGI [2]: > 100 µM | TGI [3]: > 100 µM | TGI [4]: > 100 µM | TGI [6]: > 100 µM | TGI [7]: > 100 µM | TGI [8]: > 100 µM | TGI [9]: > 100 µM | TGI [11]: > 100 µM | TGI [12]: > 100 µM | TGI [13]: > 100 µM | TGI [14]: > 100 µM | TGI [15]: > 100 µM | TGI [16]: > 100 µM | TGI [17]: > 100 µM | TGI [18]: > 100 µM | TGI [19]: > 100 µM | TGI [21]: > 100 µM | TGI [22]: > 100 µM | TGI [23]: > 100 µM | TGI [24]: > 100 µM | TGI [25]: > 100 µM | TGI [26]: > 100 µM | TGI [27]: > 100 µM | TGI [28]: > 100 µM | TGI [29]: > 100 µM | TGI [30]: > 100 µM | TGI [31]: > 100 µM | TGI [32]: > 100 µM | TGI [33]: > 100 µM | TGI [34]: > 100 µM | TGI [35]: > 100 µM | TGI [36]: > 100 µM | TGI [37]: > 100 µM | TGI [38]: > 100 µM | TGI [39]: > 100 µM | TGI [40]: > 100 µM | TGI [41]: > 100 µM | TGI [42]: > 100 µM | TGI [43]: > 100 µM | TGI [44]: > 100 µM | TGI [46]: > 100 µM | TGI [47]: > 100 µM | TGI [48]: > 100 µM | TGI [49]: > 100 µM | TGI [50]: > 100 µM | TGI [51]: > 100 µM | TGI [52]: > 100 µM | TGI [53]: > 100 µM | TGI [54]: > 100 µM | TGI [55]: > 100 µM | TGI [58]: > 100 µM | TGI [56]: > 100 µM | TGI [59]: > 100 µM | TGI [57]: > 100 µM

O=C(O)/C=C/c1ccc(Oc2ccccc2C(=O)O)o1
TGI [1]: > 10 µM | TGI [2]: > 10 µM | TGI [4]: > 10 µM | TGI [5]: > 10 µM | TGI [6]: > 10 µM | TGI [7]: > 10 µM | TGI [8]: > 10 µM | TGI [10]: > 10 µM | TGI [13]: > 10 µM | TGI [14]: > 10 µM | TGI [15]: > 10 µM | TGI [16]: > 10 µM | TGI [17]: > 10 µM | TGI [18]: > 10 µM | TGI [19]: > 10 µM | TGI [20]: > 10 µM | TGI [21]: > 10 µM | TGI [23]: > 10 µM | TGI [24]: > 10 µM | TGI [25]: > 10 µM | TGI [26]: > 10 µM | TGI [27]: > 10 µM | TGI [28]: > 10 µM | TGI [29]: > 10 µM | TGI [30]: > 10 µM | TGI [31]: > 10 µM | TGI [32]: > 10 µM | TGI [33]: > 10 µM | TGI [34]: > 10 µM | TGI [37]: > 10 µM | TGI [38]: > 10 µM | TGI [39]: > 10 µM | TGI [40]: > 10 µM | TGI [41]: > 10 µM | TGI [42]: > 10 µM | TGI [43]: > 10 µM | TGI [45]: > 10 µM | TGI [46]: > 10 µM | TGI [47]: > 10 µM | TGI [49]: > 10 µM | TGI [50]: > 10 µM | TGI [51]: > 10 µM | TGI [52]: > 10 µM | TGI [53]: > 10 µM | TGI [54]: > 10 µM | TGI [55]: > 10 µM | TGI [58]: > 10 µM | TGI [56]: > 10 µM | TGI [59]: > 10 µM | TGI [57]: > 10 µM

COc1ccc(/C=N\N(C)Cc2cccc3ccsc23)cc1
TGI [1]: > 100 µM | TGI [2]: > 100 µM | TGI [3]: > 100 µM | TGI [4]: > 100 µM | TGI [5]: > 100 µM | TGI [7]: > 100 µM | TGI [8]: > 100 µM | TGI [9]: > 100 µM | TGI [10]: > 100 µM | TGI [11]: > 100 µM | TGI [12]: > 100 µM | TGI [13]: > 100 µM | TGI [14]: > 100 µM | TGI [15]: > 100 µM | TGI [16]: > 100 µM | TGI [17]: > 100 µM | TGI [18]: > 100 µM | TGI [19]: > 100 µM | TGI [20]: > 100 µM | TGI [21]: > 100 µM | TGI [22]: > 100 µM | TGI [23]: > 100 µM | TGI [24]: > 100 µM | TGI [25]: > 100 µM | TGI [26]: > 100 µM | TGI [27]: > 100 µM | TGI [28]: > 100 µM | TGI [29]: > 100 µM | TGI [30]: > 100 µM | TGI [31]: > 100 µM | TGI [32]: > 100 µM | TGI [33]: > 100 µM | TGI [34]: > 100 µM | TGI [35]: > 100 µM | TGI [36]: > 100 µM | TGI [37]: > 100 µM | TGI [38]: > 100 µM | TGI [39]: > 100 µM | TGI [40]: > 100 µM | TGI [41]: > 100 µM | TGI [42]: > 100 µM | TGI [43]: > 100 µM | TGI [44]: > 100 µM | TGI [46]: > 100 µM | TGI [47]: > 100 µM | TGI [49]: > 100 µM | TGI [50]: > 100 µM | TGI [51]: > 100 µM | TGI [52]: > 100 µM | TGI [53]: > 100 µM | TGI [54]: > 100 µM | TGI [55]: > 100 µM | TGI [58]: > 100 µM | TGI [56]: > 100 µM | TGI [59]: > 100 µM | TGI [57]: > 100 µM
